Laboratory results taken from ChEMBL document CHEMBL5380866, “Discovery of Selective P2Y6R Antagonists with High Affinity and In Vivo Efficacy for Inflammatory Disease Therapy” (J Med Chem, 2023).
The source made the active and inactive calls. No cut-off for these calls is given here.

Experiments:
[1] = target: T1, P2Y purinoceptor 6 (Homo sapiens, UniProt Q15077); test: Binding affinity to human recombinant P2Y6R expressed in HEK293 cells at 500 uM pretreated for 1 hrs followed by pulldown using streptavidin agarose resin by Western blot analysis; format: cell-based; conditions: filed as antagonist
[2] = target: T1, P2Y purinoceptor 6; test: Antagonist activity at human P2Y6R expressed in HEK293 cells assessed as inhibition of UDP-induced IP3 production preincubated for 0.5 hrs followed by UDP stimulation and measured after 12 hrs by ELISA analysis; format: functional, cell-based
[3] = tested on: Mus musculus; test: Anti-inflammatory activity against DSS-induced acute ulcerative colitis intrarectal dosed C57BL/6J mouse model assessed as reduction in inflammatory infiltration administered daily from 1 to 7 days by H and E staining based microscopic analysis; format: functional, organism-based; conditions: route rec, time 1-7 day
[4] = target: T1, P2Y purinoceptor 6; test: Binding affinity to human recombinant P2Y6R assessed as dissociation constant by grating-coupled interferometry analysis
[5] = tested on: HT-29; test: Cytotoxicity against human HT-29 cells assessed as inhibition of cell growth at below 10 uM incubated for 12 to 24 hrs by CCK-8 assay; format: functional, cell-based; conditions: time 12-24 hrs
[6] = tested on: A549; test: Cytotoxicity against human A549 cells assessed as inhibition of cell growth at below 10 uM incubated for 12 hrs by CCK-8 assay; format: functional, cell-based
[7] = AUC (0 to t) in Sprague-Dawley rat at 2 mg/kg, iv measured at 3 to 480 mins by LC-MS/MS analysis; format: ADME, organism-based; set-up: dose 2 mg/kg, time 3-480 min, route iv; conditions: in vivo
[8] = Cmax in Sprague-Dawley rat at 2 mg/kg, iv measured at 3 to 480 mins by LC-MS/MS analysis; format: ADME, organism-based; set-up: time upper 480 min, time lower 3 min, dose 2 mg/kg, route iv; conditions: in vivo
[9] = Half life in Sprague-Dawley rat at 2 mg/kg, iv measured at 3 to 480 mins by LC-MS/MS analysis; format: ADME, organism-based; conditions: in vivo, time 3-480 min
[10] = Clearance in Sprague-Dawley rat at 2 mg/kg, iv measured at 3 to 480 mins by LC-MS/MS analysis; format: ADME, organism-based; conditions: in vivo, time 3-480 min
[11] = MRT in Sprague-Dawley rat at 2 mg/kg, iv measured at 3 to 480 mins by LC-MS/MS analysis; format: ADME, organism-based; conditions: in vivo, time 3-480 min
[12] = Volume of distribution in Sprague-Dawley rat at 2 mg/kg, iv measured at 3 to 480 mins by LC-MS/MS analysis; format: ADME, organism-based; conditions: in vivo, time 3-480 min
[13] = AUC (0 to t) in Sprague-Dawley rat at 20 mg/kg, po measured at 10 to 720 mins by LC-MS/MS analysis; format: ADME, organism-based; set-up: time upper 720 min, time lower 10 min, dose 20 mg/kg, route po; conditions: in vivo
[14] = Cmax in Sprague-Dawley rat at 20 mg/kg, po measured at 10 to 720 mins by LC-MS/MS analysis; format: ADME, organism-based; set-up: time upper 720 min, dose 20 mg/kg, time lower 10 min, route po; conditions: in vivo
[15] = Half life in Sprague-Dawley rat at 20 mg/kg, po measured at 10 to 720 mins by LC-MS/MS analysis; format: ADME, organism-based; conditions: in vivo, time 10-720 min
[16] = Tmax in Sprague-Dawley rat at 20 mg/kg, po measured at 10 to 720 mins by LC-MS/MS analysis; format: ADME, organism-based; conditions: in vivo, time 10-720 min
[17] = Oral bioavailability in Sprague-Dawley rat at 20 mg/kg measured at 10 to 720 mins by LC-MS/MS analysis; format: ADME, organism-based; conditions: in vivo, time 10-720 min
[18] = tested on: Mus musculus; test: Anti-inflammatory activity against DSS-induced acute ulcerative colitis intrarectal dosed C57BL/6J mouse model assessed as decrease in spleen index administered daily from 1 to 7 days; format: functional, organism-based; conditions: route rec, time 1-7 day
[19] = tested on: Mus musculus; test: Anti-inflammatory activity against DSS-induced acute ulcerative colitis intrarectal dosed C57BL/6J mouse model assessed as […] length administered daily from 1 to 7 days; format: functional, organism-based; conditions: route rec, time 1-7 day
[20] = tested on: Mus musculus; test: Anti-inflammatory activity against DSS-induced acute ulcerative colitis intrarectal dosed C57BL/6J mouse model assessed as decrease in crypt necrosis administered daily from 1 to 7 days by H and E staining based microscopic analysis; format: functional, organism-based; conditions: route rec, time 1-7 day
[21] = tested on: Mus musculus; test: Anti-inflammatory activity against DSS-induced acute ulcerative colitis intrarectal dosed C57BL/6J mouse model assessed as decrease in goblet cells administered daily from 1 to 7 days by H and E staining based microscopic analysis; format: functional, organism-based; conditions: route rec, time 1-7 day
[22] = tested on: Mus musculus; test: Anti-inflammatory activity against DSS-induced acute ulcerative colitis intrarectal dosed C57BL/6J mouse model assessed as decrease in mucosal damage administered daily from 1 to 7 days by H and E staining based microscopic analysis; format: functional, organism-based; conditions: route rec, time 1-7 day
[23] = tested on: Mus musculus; test: Anti-inflammatory activity against DSS-induced acute ulcerative colitis intrarectal dosed C57BL/6J mouse model assessed as […] Occludin expression at high dose measured after 8 hrs by Western blot analysis; format: functional, organism-based; conditions: route rec
[24] = tested on: Mus musculus; test: Anti-inflammatory activity against DSS-induced acute ulcerative colitis intrarectal dosed C57BL/6J mouse model assessed as […] ZO-1 expression at high dose measured after 8 hrs by Western blot analysis; format: functional, organism-based; conditions: route rec
[25] = tested on: Mus musculus; test: Anti-inflammatory activity against DSS-induced acute ulcerative colitis intrarectal dosed C57BL/6J mouse model assessed as […] claudin-1 expression at high dose measured after 8 hrs by Western blot analysis; format: functional, organism-based; conditions: route rec
[26] = tested on: Mus musculus; test: Inhibition of NLRP3 inflammasome activation in DSS-induced acute ulcerative colitis intrarectal dosed C57BL/6J mouse model assessed as decrease in colon NLRP3 expression measured after 8 hrs by Western blot analysis; format: functional, organism-based; conditions: route rec
[27] = tested on: Mus musculus; test: Inhibition of NLRP3 inflammasome activation in DSS-induced acute ulcerative colitis intrarectal dosed C57BL/6J mouse model assessed as decrease in colon ASC expression measured after 8 hrs by Western blot analysis; format: functional, organism-based; conditions: route rec
[28] = tested on: Mus musculus; test: Inhibition of NLRP3 inflammasome activation in DSS-induced acute ulcerative colitis intrarectal dosed C57BL/6J mouse model assessed as decrease in colon caspase-1 expression measured after 8 hrs by Western blot analysis; format: functional, organism-based; conditions: route rec
[29] = tested on: Mus musculus; test: Anti-inflammatory activity against LPS-induced acute lung injury C57BL/6J mouse model assessed as reduction in pulmonary edema administered IT(Intratracheal) pretreated with LPS followed by compound addition and measured after 12 hrs; format: functional, organism-based; conditions: dose 1-5 mg/kg
[30] = tested on: Mus musculus; test: (§1) Anti-inflammatory activity against LPS-induced acute lung injury C57BL/6J mouse model assessed as reduction in inflammatory infiltration in BALF administered IT(Intratracheal) pretreated with LPS followed by compound addition and measured after 12 hrs; format: functional, organism-based; conditions: dose 1-5 mg/kg
[31] = tested on: Mus musculus; test: as §1, with “lung at 1 to 5 mg/kg,” for “BALF administered”, “hrs by H and E staining based microscopic analysis” for “hrs”; format: functional, organism-based; conditions: dose 1-5 mg/kg
[32] = tested on: Mus musculus; test: Anti-inflammatory activity against LPS-induced acute lung injury C57BL/6J mouse model assessed as restoration of lung structure at 1 to 5 mg/kg, IT(Intratracheal) pretreated with LPS followed by compound addition and measured after 12 hrs by H and E staining based microscopic analysis; format: functional, organism-based; conditions: dose 1-5 mg/kg
[33] = tested on: Mus musculus; test: Anti-inflammatory activity against LPS-induced acute lung injury C57BL/6J mouse model assessed as decrease in lung TNF-alpha mRNA expression level 1 to 5 mg/kg, IT(Intratracheal) pretreated with LPS followed by compound addition and measured after 12 hrs RT-PCR analysis; format: functional, organism-based; conditions: dose 1-5 mg/kg
[34] = tested on: Mus musculus; test: Anti-inflammatory activity against LPS-induced acute lung injury C57BL/6J mouse model assessed as decrease in lung IL-1beta mRNA expression level 1 to 5 mg/kg, IT(Intratracheal) pretreated with LPS followed by compound addition and measured after 12 hrs RT-PCR analysis; format: functional, organism-based; conditions: dose 1-5 mg/kg
[35] = tested on: Mus musculus; test: Anti-inflammatory activity against LPS-induced acute lung injury C57BL/6J mouse model assessed as decrease in TNF-alpha secretion in BALF 1 to 5 mg/kg, IT(Intratracheal) pretreated with LPS followed by compound addition and measured after 12 hrs ELISA analysis; format: functional, organism-based; conditions: dose 1-5 mg/kg
[36] = tested on: Mus musculus; test: Anti-inflammatory activity against LPS-induced acute lung injury C57BL/6J mouse model assessed as decrease in IL-1beta secretion in BALF 1 to 5 mg/kg, IT(Intratracheal) pretreated with LPS followed by compound addition and measured after 12 hrs ELISA analysis; format: functional, organism-based; conditions: dose 1-5 mg/kg
[37] = tested on: Mus musculus; test: Anti-inflammatory activity against LPS-induced acute lung injury C57BL/6J mouse model assessed as reversal of increase in TLR4 expression level 1 to 5 mg/kg, IT(Intratracheal) pretreated with LPS followed by compound addition and measured after 12 hrs by Western blot analysis; format: functional, organism-based; conditions: dose 1-5 mg/kg
[38] = tested on: Mus musculus; test: Anti-inflammatory activity against LPS-induced acute lung injury C57BL/6J mouse model assessed as reversal of increase in MyD88 expression level 1 to 5 mg/kg, IT(Intratracheal) pretreated with LPS followed by compound addition and measured after 12 hrs by Western blot analysis; format: functional, organism-based; conditions: dose 1-5 mg/kg
[39] = tested on: Mus musculus; test: Anti-inflammatory activity against LPS-induced acute lung injury C57BL/6J mouse model assessed as reversal of increase in ERK-phosphorylation level 1 to 5 mg/kg, IT(Intratracheal) pretreated with LPS followed by compound addition and measured after 12 hrs by Western blot analysis; format: functional, organism-based; conditions: dose 1-5 mg/kg
[40] = tested on: Mus musculus; test: Anti-inflammatory activity against LPS-induced acute lung injury C57BL/6J mouse model assessed as reversal of increase in p-38 phosphorylation level 1 to 5 mg/kg, IT(Intratracheal) pretreated with LPS followed by compound addition and measured after 12 hrs by Western blot analysis; format: functional, organism-based; conditions: dose 1-5 mg/kg

T1 sequence (Q15077 whole entry): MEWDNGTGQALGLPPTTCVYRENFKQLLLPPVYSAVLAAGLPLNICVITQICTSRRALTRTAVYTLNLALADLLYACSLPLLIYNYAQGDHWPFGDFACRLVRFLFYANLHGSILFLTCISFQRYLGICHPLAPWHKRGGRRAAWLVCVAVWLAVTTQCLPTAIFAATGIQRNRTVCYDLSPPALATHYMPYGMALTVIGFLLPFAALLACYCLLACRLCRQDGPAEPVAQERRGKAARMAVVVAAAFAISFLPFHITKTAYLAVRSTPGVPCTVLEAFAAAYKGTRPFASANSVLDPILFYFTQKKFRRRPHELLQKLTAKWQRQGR

## CC(C)(C)n1nc(-c2nc3cc(C(=O)NCCOCCOCCOCCNC(=O)CCCC[C@@H]4SC[C@@H]5NC(=O)N[C@@H]54)ccc3[nH]2)cc1-c1ccco1
[1]
  Activity: Active

## Cc1ccc2nc(-c3cc(-c4ccco4)n(C(C)(C)C)n3)oc2c1
[2]
  IC50: 0.0729 µM

## CC(C)(C)n1nc(-c2nc3ccccc3o2)cc1-c1ccccc1
[2]
  IC50: 0.173 µM

## Cc1ccc2oc(-c3cc(-c4ccco4)n(C(C)(C)C)n3)nc2c1
[2]
  IC50: 0.202 µM

## Cc1ccc2[nH]c(-c3cc(-c4ccccc4)n(C(C)(C)C)n3)nc2c1
[2]
  IC50: 0.0778 µM

## CC(C)(C)n1nc(-c2nc3cc(Cl)ccc3[nH]2)cc1-c1ccco1
[3]
  Activity: Active
[2]
  IC50: 0.00591 µM
[4]
  Kd: 3.47 µM
[5]
  inhibition: inactive
[6]
  inhibition: inactive
[7]
  AUC(0-t): 261 ng·h/mL
[8]
  Cmax: 1050 ng/mL
[9]
  half-life: 1.81 h
[10]
  clearance: 130 mL/min/kg
[11]
  MRT: 0.575 h
[12]
  Vd: 20.1 L/kg
[13]
  AUC(0-t): 415 ng·h/mL
[14]
  Cmax: 53.7 ng/mL
[15]
  half-life: 6.46 h
[16]
  Tmax: 2 h
[17]
  bioavailability: 15.9%
[18]
  Activity: Dose-Dependent Effect
[19]
  Activity: Dose-Dependent Effect
[20]
  Activity: Active
[21]
  Activity: Active
[22]
  Activity: Active
[23]
  Activity: Active
[24]
  Activity: Active
[25]
  Activity: Active
[26]
  inhibition: Active
[27]
  inhibition: Active
[28]
  inhibition: Active
[29]
  Activity: Dose-Dependent Effect
[30]
  Activity: Dose-Dependent Effect
[31]
  Activity: Active
[32]
  Activity: Active
[33]
  Activity: Active
[34]
  Activity: Active
[35]
  Activity: Active
[36]
  Activity: Active
[37]
  Activity: Active
[38]
  Activity: Active
[39]
  Activity: Active
[40]
  Activity: Active

## CC(C)(C)n1nc(-c2nc3ccccc3[nH]2)cc1-c1ccco1
[2]
  IC50: 0.159 µM

## CC(C)(C)n1nc(-c2nc3ccccc3o2)cc1-c1ccco1
[2]
  IC50: 0.0308 µM

## CC(C)(C)n1nc(-c2nc3cc([N+](=O)[O-])ccc3[nH]2)cc1-c1ccco1
[2]
  IC50: 0.0126 µM

## CC(C)(C)n1nc(-c2nc3cc(Br)ccc3[nH]2)cc1-c1ccco1
[2]
  IC50: 0.0457 µM

## O=C(O)CCC(=O)N1N=C(c2nc3cc(Cl)ccc3[nH]2)CC1c1ccco1 (configuration not stated)
[2]
  IC50: 0.457 µM

## CC(C)(C)n1nc(-c2nc3cc(C(F)(F)F)ccc3[nH]2)cc1-c1ccco1
[2]
  IC50: 0.0152 µM

## S=C=Nc1cccc(NC(=S)NCCCCNC(=S)Nc2cccc(N=C=S)c2)c1
[2]
  IC50: 0.0275 µM

## CC(C)(C)n1nc(-c2nc3cc(F)ccc3[nH]2)cc1-c1ccco1
[2]
  IC50: 0.0641 µM
